What was measured:
Assay type in all cases: cell-based, human
[1] = test system: Cx43/α-tubulin interaction; test: Co-immunoprecipitation with α-tubulin antibody: Cx43 interaction with α-tubulin; conditions: VTC-037 GSCs, 50 μM, 24 h, cross-linked (DTBP)
Protocol: Prior to lysis, cross-linking was completed by incubating cells in DTBP (dimethyl 3,3’-dithiobispropionimidate; 2 mM in PBS) for 30 min at 37 °C followed by a glycine quench (100 mM glycine in PBS) for 15 min at room temperature. Cross-linked samples were lysed in RIPA buffer supplemented with Halt^TM Protease and Phosphatase Inhibitor Cocktail as described above, but without sonication. Co-immunoprecipitation (co-IP) assays were also performed without cross-linking; non-cross-linked samples were lysed using a co-IP lysis buffer (0.5% Triton X-100, 50 mM Tris HCl, 150 mM NaCl, 1 mM EDTA, 1 mM EGTA, 1 mM DTT, 0.1 mM Na3VO4, and 1 mM NaF) supplemented with Halt^TM Protease and Phosphatase Inhibitor Cocktail, without sonication. Protein concentration was quantified using the DC protein assay and a standard curve obtained with increasing concentrations of BSA, and 500 μg of total protein was used per reaction for co-IP. Inputs were removed prior to co-IP and denatured in Bolt LDS sample buffer as described above. Remaining protein lysates were incubated with Protein G Sepharose^TM 4 Fast Flow beads (GE Healthcare) for pre-clearance for 30 min at 4 °C. Samples were incubated with 2 μg of mouse anti-α-tubulin (MilliporeSigma, T6199) for cross-linked samples or mouse anti-Cx43 antibody (EMD Millipore; MAB3067) for non-cross-linked samples for 90 min at 4 °C. […]

VTC-001 GSCs = test: MTS viability, VTC-001 GSCs; conditions: 4 days
Protocol: Cells were plated in 96-well plates (2000–5000 cells per well) and treated the following day with TMZ (10, 50, or 100 μM), antennapedia, JM2-scrambled, or JM2 (10, 50, or 100 μM). After 4 days, cell viability was monitored following addition of MTS reagent (Promega) according to manufacturer’s instructions. The absorbance at 490 nm was measured using a SpectraMax i3 or iD3 microplate reader (Molecular Devices). For the caspase 3/7 activity assay, cells were plated in 96-well plates (2000 cells per well) and treated with TMZ or peptides as described above. The activity of caspase 3/7 was measured after 48 h using the Caspase-Glo® 3/7 assay (Promega) following the manufacturer’s instructions. Fold change of caspase 3/7 activity was defined as the ratio of caspase 3/7 luminescence in treated cells compared to controls.

PDX GBM22 cells = test: Gliosphere formation assay, PDX GBM22 cells; conditions: 100 μM every other day, 2 weeks
Protocol: GSCs and PDX GBM22 cells were plated as single cell suspension in low-attachment 96-well plates (GSCs: 100–500 cells per well; GBM22 cells: 500–2000 cells per well), using methods similar to those reported previously. Cells were then treated with peptides every other day. 2 weeks later, gliospheres were observed using phase contrast microscopy on a Revolve microscope (Echo Laboratories). The number of gliospheres was then determined, while the gliosphere size was assessed by diameter measurement. To evaluate stem cell frequency in GSCs, gliosphere formation assay was performed with limiting cell dilutions with cells plated at varying densities in low-attachment 96-well plates. Cells were treated with peptides every other day, and after 2 weeks, gliosphere-positive wells were observed and scored using phase contrast microscopy on a Revolve microscope. The stem cell frequency was analyzed using the online data analysis program ELDA (Extreme Limiting Dilution Analysis).

VFFKGVKDRVKGRSD [JM2]
Cx43 interaction with α-tubulin (co-IP) [1]: decrease in Cx43 interaction with α-tubulin
GSC viability with JM2 alone in combination experiment (MTS) (VTC-001 GSCs; VTC-001 adherent GSCs, 100 μM): significantly decreased GSC viability
GSC survival (MTS) (VTC-001 GSCs; VTC-001 adherent GSCs, 10, 50 or 100 μM): significantly decreased VTC-001, VTC-034, and VTC-037 GSC survival when cultured as adherent cells in a dose-dependent manner
GBM22-derived gliosphere size (diameter) (PDX GBM22 cells; n = 5): significantly decreases GBM22-derived gliosphere size
GBM22-derived gliosphere number (PDX GBM22 cells; n = 6): significantly decreases GBM22-derived gliosphere size as assessed by diameter measurement (Fig. 8C), and number

Source: article PMC12084297, “Cytoplasmic connexin43-microtubule interactions promote glioblastoma stem-like cell maintenance and tumorigenicity” (Cell Death & Disease, 2025)
